Experimental data reported in patent US7547678B2, “Method for treating a disease, disorder or adverse effect caused by an elevated serum concentration of an UGT1A1 substrate” (Abbott Laboratories, priority 2008, dated 2009).
Values joined by “and” are separate entries in the source; they are usually repeats but may differ in a detail not shown here. Equal values may be shown once.

Legend:
[1] = Ethinylestradiol pharmacokinetics alone and with ritonavir in healthy female volunteers; assay type: in vivo, human
Description: This was an open-label, single-center study in healthy female volunteers who had not received an oral contraceptive for a minimum of six months prior to study start. Subjects received the first dose of oral contraceptive containing 50 μg of ethinyl estradiol on Day 1. […] On Day 15, 300 mg q12h was administered, 400 mg q12h was given on Day 16, and 500 mg q12h was administered thereafter. […] Blood samples for ethinylestradiol concentrations were collected for 48 h after each of the oral contraceptive doses.
Twenty-seven subjects were enrolled in the study. […] Data from these four subjects were therefore excluded from summary statistics. The mean ±SD age of the 23 subjects who completed the study was 34±10 yrs (range 19 to 45 yrs), the mean ±SD weight was 67.3±10.9 kg (range 50.8 to 90.3 kg), and the mean ±SD height was 167±7 cm (range 155 to 180 cm).
Ethinylestradiol was supplied as Demulen@ 1/50-21 tablets (G.D. Searle & Co.) containing 50 μg of ethinylestradiol and 1 mg of ethynodiol diacetate and was administered at 8:00 a.m. on Day 1 and Day 29 with approximately 240 mL of water and within 15 minutes of a meal or snack.
Subjects were confined for 64 hours from Day-1 (day prior to the initial dose) through the first 48 hour blood collection (morning of Day 3) and for 64 hours from Day 28 through the second 48 hour blood collection (morning of Day 31). In addition, subjects came to the clinical testing unit as outpatients for meals, dosing and other study activities twice daily for a total of 14 consecutive days, starting on Day 15. Strenuous activity during confinement was not permitted. During confinement, subjects abstained from all food and beverages except for the scheduled meals and snacks provided in the study. Water was available ad libitum. All meals were standardized with regard to content during confinement. Breakfast, lunch, and dinner were served at approximately 7:30 a.m., 1:00 p.m. and 7:30 p.m. and snacks were provided at approximately 10:00 p.m., except on Days-1 and 28 when the snack was served at 9:45 p.m. An 8 hour fast was required prior to all blood collections for clinical laboratory analyses. The sequence of starting breakfast and dinner on each dosing day during confinement was maintained to the minute such that the time intervals relative to dosing were the same among all subjects.
Blood samples (7 mL) were collected for serum ethinyl estradiol concentrations at the following times relative to the dose on Day 1 and Day 29: prior to (0 h) and at 0.5, 1, 2, 3, 4, 6, 8, 10, 12, 18, 24, 30, 36, and 48 h post-dose. […] All plasma and serum samples were packed with dry ice and shipped to the analytical sites.
Serum samples were analyzed for ethinylestradiol concentrations at Pharmaco LSR, Richmond, Va.
Analysis of serum samples for determination of ethinyl estradiol was performed at Pharmaco LSR, Richmond, Va. Ethinylestradiol serum concentrations were determined using a gas chromatography/mass spectrometry (GC/MS) method. 17α-ethinylestradiol and its corresponding isotopically labeled internal standard were isolated from human serum by buffering the serum to pH 8.6 and then extracting with an ethyl ether/methylene chloride mixture. The organic layer was exchanged into aqueous base, washed with hexane and then acidified and extracted with methylene chloride. […] This method has been validated over 17α-ethinylestradiol concentrations ranging from 2.00 to 256 pg/mL for a 1.0 mL serum volume, with a minimum quantitation limit of 2.00 pg/mL. […]

[2] = test system: UDP-glucuronosyltransferase 1A (UGT 1A); assay: Affymetrix Rat U34 microarray of liver RNA after oral ritonavir; assay type: in vivo, Sprague-Dawley rats
UGT1A1 = assay: Hepatic 17α-ethinylestradiol glucuronidation activity in liver microsomes of treated rats; conditions: both male and female rats
[3] = one study, subjects taking atazanavir; cited from earlier work
UGT1A1 isoform = biological target: T1, UGT1A1 isoform (Homo sapiens, UniProt P22309); conditions: human cells transfected with the UGT1A1 isoform; cited from earlier work
T1 sequence (P22309 26-533): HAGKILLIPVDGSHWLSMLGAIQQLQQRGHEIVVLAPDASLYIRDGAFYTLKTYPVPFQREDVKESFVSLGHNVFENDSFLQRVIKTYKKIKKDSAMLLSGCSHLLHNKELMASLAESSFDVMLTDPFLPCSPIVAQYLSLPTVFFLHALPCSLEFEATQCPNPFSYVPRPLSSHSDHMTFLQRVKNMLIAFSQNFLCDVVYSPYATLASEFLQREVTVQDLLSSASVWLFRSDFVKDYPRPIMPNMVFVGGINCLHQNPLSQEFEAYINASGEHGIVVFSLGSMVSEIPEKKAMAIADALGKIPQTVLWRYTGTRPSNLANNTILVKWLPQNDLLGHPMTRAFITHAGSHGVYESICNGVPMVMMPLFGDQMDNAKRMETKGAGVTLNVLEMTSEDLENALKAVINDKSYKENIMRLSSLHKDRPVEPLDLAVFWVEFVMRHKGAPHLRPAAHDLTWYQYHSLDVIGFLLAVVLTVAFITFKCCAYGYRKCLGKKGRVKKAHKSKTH

[4] = test system: bilirubin conjugation in human microsomes; conditions: in vitro system of human microsomes; cited from earlier work
[5] = test system: bilirubin-conjugating activity; conditions: indinavir treatment; cited from earlier work
[6] = Mean ± SD, n = 23, single 50 μg ethinylestradiol dose, alone (Day 1) or on Day 29 during ritonavir 500 mg q12h, serum
[7] = 1-Day Studies, 20 mg/kg oral, liver RNA, 20 mg/kg
[8] = 1-Day Studies, 50 mg/kg oral, liver RNA, 50 mg/kg
[9] = 3-Day Studies, 50 mg/kg oral daily, liver RNA, 50 mg/kg

In the case of `C#C[C@]1(O)CC[C@H]2[C@@H]3CCc4cc(O)ccc4[C@H]3CC[C@@]21C` [Ethinylestradiol, 17α-ethinylestradiol], the “Ethinylestradiol AUC∞” value [1, 6] is reported as 1.67 ± 0.377 ng·h/mL, the “Ethinylestradiol Cmax” value [1, 6] is reported as 0.104 ± 0.024 ng/mL and the “Ethinylestradiol Tmax” value [1, 6] is reported as 4.0 ± 1.7 h. For the same molecule, the “Ethinylestradiol β (terminal elimination rate constant)” value [1, 6] was 0.0407 ± 0.0082 h⁻¹ and the “time at which serum ethinylestradiol concentrations peaked post-dose” value ([1]; single dose of oral contraceptive alone) was “approximately 4 h”.

For `CC(C)c1nc(CN(C)C(=O)N[C@H](C(=O)N[C@@H](Cc2ccccc2)C[C@H](O)[C@H](Cc2ccccc2)NC(=O)OCc2cncs2)C(C)C)cs1` [ritonavir, Ritonavir], the “Fold change, UDP-glucuronosyltransferase 1 family, member 1 (1st probe sequence)” value ([2]; 1-Day Studies, 20 mg/kg oral, liver RNA) was 1.63, the “Fold change, 3-methylcholanthrene-inducible UDP-glucuronosyltransferase” value [2, 7] was 1.83 and 1.54 and the “Fold change, UDP-glucuronosyltransferase 1 family, member 1 (2nd probe sequence)” value [2, 7] was 1.68 and 1.51. The “Fold change, UDP-glucuronosyltransferase 1 family, member 1 (3rd probe sequence)” value (“Fold change … (3rd probe sequence)” below) [2, 7] was 1.8 and 1.52, the “Fold change, UDP glucuronosyltransferase, exon 1.” value ([2]; 1-Day Studies, 50 mg/kg oral, liver RNA) was 2.43 and the “Fold change, 3-methylcholanthrene-inducible UDP-glucuronosyltransferase” value [2, 8] was 1.63 and 2.1. The “Fold change, UDP-glucuronosyltransferase 1 family, member 1 (1st probe sequence)” value [2, 8] was 1.68 and 1.63, the “Fold change, UDP-glucuronosyltransferase 1 family, member 1 (2nd probe sequence)” value [2, 8] was 2.12 and 2.05 and the “Fold change … (3rd probe sequence)” value [2, 8] was 1.75 and 2.12. The “Fold change, 3-methylcholanthrene-inducible UDP-glucuronosyltransferase” value [2, 9] was 1.54 and 1.85, the “Fold change … (3rd probe sequence)” value [2, 9] was 1.31 and 1.33 and the “UGT1A levels for all probe sets” value ([2]; dose levels of 100 mg/kg and higher, after 1 and 3 days of treatment) was “consistent increase”. For the same molecule, the “glucuronidation of 17α-ethinylestradiol, a UGT1A1 substrate (result in words)” value (UGT1A1) was “significantly increase”.

In the case of `COC(=O)N[C@H](C(=O)N[C@@H](Cc1ccccc1)[C@@H](O)CN(Cc1ccc(-c2ccccn2)cc1)NC(=O)[C@@H](NC(=O)OC)C(C)(C)C)C(C)(C)C` [Atazanavir], the “subjects exhibiting unconjugated hyperbilirubinemia” value [3] is given as 57%, the “inhibition of bilirubin conjugation (result in words)” value (UGT1A1 isoform) is given as “inhibits bilirubin conjugation in the micromolar range” and the “inhibition of bilirubin conjugation (result in words)” value [4] is given as “inhibits bilirubin conjugation in the micromolar range”.

For `CC(C)(C)NC(=O)[C@@H]1CN(Cc2cccnc2)CCN1C[C@@H](O)C[C@@H](Cc1ccccc1)C(=O)N[C@H]1c2ccccc2C[C@H]1O` [Indinavir], the “cause of elevations in serum-unconjugated bilirubin (result in words)” value [5] is given as “direct inhibition of bilirubin-conjugating activity”.
